87 compounds from a melting point compilation (Tetko et al.; mined from patent text by program, amines drawn as free bases though some values may be those of a salt) can be followed below.

As usually defined, the melting point is the temperature of the solid-liquid transition.

`CSc1c(C(Cc2ccccc2)C(=O)O)ccc2c3ccccc3n(Cc3ccccc3)c12` (configuration not stated) returned a melting point of 154 to 156 °C.
Take `CN(c1cc(OCCO)cc2cc(C3=NCC(CN4CCSCC4)S3)[nH]c12)S(=O)(=O)c1ccccn1` (configuration not stated): the melting point fell in the range of 160 to 162 °C.
The figure for `O=C(O)c1ccccc1Oc1ccc(Cl)cn1` is 159 °C.
Then `OCc1cc(N2CCCCC2)c(Br)cn1`, with 118 to 119 °C.
Regarding `CCNc1cc(-c2c[nH]c(N)n2)ccn1`, the melting point is 200 to 202 °C.
Take `CCCCCCCCCCCCCCCC/C=C\OC[C@H](O)CO`: the melting point is 55 to 56 °C.
Regarding `Clc1cc(Nc2ccccc2)c2nc[nH]c2n1`, the melting point was > 300 °C.
The figure for `Cc1c(NC(=O)CC(C)(C)C)cc2c(c1C)OC(C)(C)C2c1ccc(CO)cc1` (configuration not stated) is 162 to 163 °C.
Regarding `Cc1cn([C@@H]2C[C@H](C(=O)OC(c3ccccc3)c3ccccc3)N(CCNC(=O)OCC3c4ccccc4-c4ccccc43)C2)c(=O)n(C(=O)c2ccccc2)c1=O`, the melting point lay in the range of 94 to 98 °C.
The figure for `CN(N=C(Cl)c1c(F)cccc1Cl)S(=O)(=O)c1ccccc1` is 103 to 105 °C; for `O=C(O)C1CCc2c(OCc3ccccc3)cccc21` (configuration not stated) it is 133 °C.
Consider `CC(C)CNc1cc2nnnn2c2cnccc12`, for which the melting point lay in the range of 220 to 221 °C.
The figure for `O=C(O)c1csc(Cn2cc(C3c4ccc(Br)cc4C=Cc4cc(Br)ccc43)c(=S)[nH]c2=O)n1` is 215 to 217 °C; for `COc1ccccc1N1CCN(CNC(=O)c2cccc(C)c2)CC1` it is 139 to 142 °C.
With `CCCOc1ccccc1-c1nc(NCC)cc(=O)[nH]1`, the melting point is 187 to 188 °C.
Then `CCc1cn(C2CC(O)C(CNCC(C)Oc3ccc(Cl)cc3Cl)O2)c(=O)[nH]c1=O` (mixture of isomers), with 51 to 61 °C; and `CCCc1nc2c(N)nc3ccccc3c2n1CCCC(N)=O`, with 249 to 251 °C.
Then `OC1CCCc2cc(F)cc(F)c21` (configuration not stated), with 102 to 103 °C; and `Cc1nc(-c2ccc(-c3cnc4[nH]c(=O)n(CCN5CCCC5=O)c4n3)cc2)n[nH]1`, with 315 to 316 °C; and `COc1cccc([C@H]2O[C@H](CC(=O)Nc3ccc4oc(C(=O)O)c(OC(C)C)c4c3)C(=O)N(CC(C)(C)CO)c3ccc(Cl)cc32)c1OC`, with 174 to 175 °C.
As to `CC(=O)SC(CC(=O)c1ccccc1C)C(=O)O` (configuration not stated), the melting point is 106 to 108 °C.
Then `CC(=O)Nc1ccc(C=C2CCc3ncc(C)cc3C2=O)cc1`, with 226 to 228 °C; and `CCCn1c(-n2nc(-c3c(-c4ccccc4)nn4ccccc34)ccc2=O)cc(=O)n(CCC)c1=O`, with 155 °C; and `O=C(Nc1cc2ncc(CN3CCCC3)cc2cc1F)c1ccc(-c2ccccc2)cc1`, with 206 to 208 °C.
Then `OCCSSc1nc2ccccc2s1`, with 65 to 68 °C; and `CCN1Cc2ccccc2P1(=O)c1ccccc1` (configuration not stated), with 94 to 95 °C.
As for `COCCNC(=O)c1cc(-c2cccc3cc(Cc4cc(F)cc(Cl)c4)sc23)ccc1F`, the melting point fell in the range of 84 to 85 °C.
With `COc1ccc(Nc2cccc(Cl)c2N)cc1`, the melting point lay in the range of 65 to 66 °C.
Turning to `Cc1ccccc1NC(=O)N(C)C`, the melting point lay in the range of 139 to 143 °C.
Then `COC(=O)c1nc2c(c(-c3ccccc3)nn2-c2ccccc2)c(N)c1C(=S)OC`, with 160 to 161 °C; and `COc1ccc(C(=N)NS(=O)(=O)C=Cc2ccc(Cl)c(Cl)c2)cc1OC`, with 205 to 210 °C.
The compound `Cc1cc(Cl)c2ccc(Cl)cc2c1CCC=O` yielded a melting point of 104 to 106 °C.
Regarding `CCN(Cc1ccc2nc(C)[nH]c(=O)c2c1)C(N)=S`, the melting point lay in the range of 186 to 187 °C.
Take `Nc1ncc(CCCCCc2cccc3ccccc23)c(N)n1`: the melting point is 128 to 133 °C.
Regarding `CCNC(=O)c1ccc(Oc2c(C)n(CC(=O)O)c3ccc(F)cc23)cc1`, the melting point was in the range of 220 to 222 °C.
The figure for `COC=C(C(=O)OC)N(C)c1ccnc(-c2ccccc2)n1` is 152 to 154 °C; for `CC(C)Sc1c(C(N)=O)n(C)c2ccc(OCc3ccccc3)cc12` it is 151 to 154 °C; for `Cc1nc2c(OCc3c(Cl)ccc(N(C)C(=O)CNC(=O)CN4C(=O)c5ccccc5C4=O)c3Cl)cccn2c1Br` it is 148 to 150 °C.
Then `O=C(O)c1ccc(Cl)c(S(=O)(=O)c2ccccc2[N+](=O)[O-])c1`, with 242 to 246 °C.
Then `COc1ccc(Cl)cc1C(=O)NCC1CCOc2cc(OC)c(S(N)(=O)=O)cc21` (configuration not stated), with 202 °C; and `CS(=O)(=O)OCCCC1Oc2cc3c(cc2NC1=O)CCCC3` (configuration not stated), with 153 to 154 °C; and `Cc1ccc(S(=O)(=O)NC(Cc2ccccc2)C(=O)O)cc1` (configuration not stated), with 134 to 135 °C.
`O=C(O)C(=O)c1ccc(S(=O)(=O)CCOc2ccc3ccccc3c2)cc1` gave a melting point of 135 to 136 °C.
Regarding `Cc1cc(C(=O)O)n(-c2ncc(Cl)cc2Cl)n1`, the melting point fell in the range of 227 to 228 °C.
For `Cn1ncnc1COc1nc2c(cc1-c1cccc(F)c1)nnn2-c1ccccc1F`, the melting point fell in the range of 143 to 145 °C.
Then `CC(C)OCCNC(=O)c1n[nH]cc1NC(=O)c1ccccn1`, with 163 to 164 °C.
The figure for `CC(C(=O)O)c1ccc(Nc2nc3ccccc3[nH]2)cc1` (configuration not stated) is 355 to 358 °C.
Then `Nc1ccc([C@H]2CC[C@H](NCCCc3ccccc3)CC2)cc1`, with 60 to 63 °C; and `Cc1oc(-c2ccccc2)nc1CC#Cc1ccc(CC(C(=O)O)c2cccc(-c3ccccc3)c2)cc1` (configuration not stated), with 105 to 107 °C; and `COc1ccc(N2CCN(c3c(C)c(C)c4c(c3C)C(CCc3ccccc3)C(C)(C)O4)CC2)cc1` (configuration not stated), with 92 to 94 °C.
`Cc1cc(NC(=S)NC(=O)c2ccccc2Cl)ccc1-n1cccc1` showed a melting point of 134 to 136 °C.
Then `CC[C@H](C)[C@H](NC(=O)[C@H](C)N(C(=O)OC(C)(C)C)C1CCCCC1)C(=O)N[C@@H](Cc1ccc(C(C)(C)C)cc1)[C@@H](O)[C@@H](O)CC(C)C`, with 171 to 172 °C; and `CN(C)c1cccc2c(S(=O)(=O)Nc3ccc4nonc4c3)cccc12`, with 106 °C; and `CC(=O)N(C)[C@@H]1CN2C(=O)N(c3cc(Cl)cc(Cl)c3)C(=O)[C@@]2(Cc2ccc(OC(F)(F)F)cc2)C1`, with 74.7 °C.
Then `CON=C(C)C(C)=NOc1ccccc1C(=NOC)C(=O)OC`, with 93 to 94 °C; and `CCC(C)(O/N=C(\C(=O)O)c1csc(NC(c2ccccc2)(c2ccccc2)c2ccccc2)n1)C(=O)OC(C)(C)C` (configuration not stated), with 163 to 164 °C.
As to `CCN1C=C(C(=O)O)C(=O)CC1c1cccnc1` (configuration not stated), the melting point is 197 to 199 °C.
The figure for `CC(C)(C)OC(=O)N[C@@H](CC1CCCCC1)[C@@H](O)CCO` is 77 to 79 °C; for `CCCc1cn(C)cc(-c2cccc(C(F)(F)F)c2)c1=S` it is 145 to 148 °C; for `Cc1c(CN2CCOCC2)ccc2c1-c1[nH]nc(-c3ccsc3)c1C2` it is 272 to 274 °C.
Then `CCCCCCCCC1(C)Cc2ccc(-c3nc4cc(CCCC)ccc4o3)cc2C1=O` (configuration not stated), with 93 °C.
The figure for `CC1=C(CCOC(=O)C(C)(C)C)C2=C(O)N(I)CN(CCOC(=O)C(C)(C)C)C2=N1` is 155 °C; for `CCCCCCCCCCOc1cc(N)cc(OCCCCCCCCCC)c1` it is 48 to 50 °C; for `NC1N=C(Cl)C=C(Cl)N1c1c([N+](=O)[O-])cc(C(F)(F)F)c(Cl)c1[N+](=O)[O-]` (configuration not stated) it is 199 to 200 °C.
As to `Cc1ccccc1COc1cccnc1NC(=N)Nc1ccccc1`, the melting point was 157 to 158 °C.
For the compound `CCCOc1cc(C)c2cc(Cn3ccnc3)ccc2n1`, the melting point came to 138 °C.
In turn, `O=C1CCCCN1S(=O)(=O)c1ccc(N2CCCCCC2)cc1` gave a melting point of 85 to 88 °C.
The figure for `CC1Cc2c(N)c(Cl)cc(C(=O)NCCC34CCCN3CCC4)c2O1` (configuration not stated) is 127 to 129 °C; for `O=Cc1c(Br)nc(Sc2ccccc2)n1Cc1cc2c(cc1Cl)OCO2` it is 155 °C; for `CC1CCN(c2c(-c3c(F)cc(F)cc3F)c(Cl)nc3nc(SCc4ccccc4)nn23)CC1` it is 147 °C.
Take `CCCCCCCCCCCCCCCCCCOC(=O)c1cccc(NC(=O)NS(=O)(=O)c2ccc(C)cc2)c1`: the melting point amounted to 96 °C.
Then `Oc1ccc(-c2nnc(-c3ccc(Oc4ccccc4)cc3)o2)cc1`, with 204 to 206 °C.
In turn, `O=C(NCCO)c1cccc(-c2ccc3c(c2)N(c2ccc(Cl)c(Cl)c2)CC3)c1` registered a melting point of 167 to 168 °C.
Then `Cc1cccc(C(=O)Cc2ccnc(-c3ccc(OCC(N)=O)cc3)c2)n1`, with 144 to 146 °C.
Turning to `O=Cc1ccc2c(ccc3c4ccccc4ccc23)c1`, the melting point was in the range of 215 to 216 °C.
The figure for `CCOC(=O)c1cn(CCF)c2c(F)c(C(C)=O)c(F)cc2c1=O` is 155 to 156 °C.
For the compound `C#CCn1cc(C#N)c(CO)c1`, the melting point was 95 °C.
Then `CS(=O)(=O)c1csc(CC(=O)C(=O)c2ccc(F)cc2)c1`, with 174 to 175 °C.
In turn, `COc1cc(C=O)ccc1OCc1csc(N2CCCCC2)n1` had a melting point of 129 to 130 °C.
In turn, `CCCCNC(=O)C(Cc1ccccc1)NC(=O)Nc1n[nH]c(=S)s1` (configuration not stated) returned a melting point of 177 to 179 °C.
Then `CN1CCN(c2cccc3ccc(Nc4nc(Cc5ccccc5)cs4)cc23)CC1`, with 157 to 160 °C; and `COc1ccc2c(c1)CC(CC#N)C2=O` (configuration not stated), with 117 to 120 °C; and `CCOC(=O)c1ccc(NC(=O)C(COS(C)(=O)=O)NS(=O)(=O)c2ccc(Cl)cc2)cc1` (racemic), with 153 to 158 °C.
With `COc1cc(Cl)nc(NC(=O)NS(=O)(=O)C(C)S(=O)(=O)N2CCCC2)n1` (configuration not stated), the melting point lay within 158 to 160 °C.
Turning to `Clc1nccnc1SN=Cc1ccccc1`, the melting point is 93 to 94 °C.
The figure for `Cc1ccc2c(c1)C=C(N1CCN(CCN3CCOC3=O)CC1)c1cc(Cl)ccc1S2` is 194 to 196 °C; for `O=CC1CCc2[nH]c3ccc(F)cc3c2C1` (configuration not stated) it is 96 to 98 °C.
